Experimental data from paper PMC9329436, “Optimization of the 4-anilinoquin(az)oline scaffold as epidermal growth factor receptor (EGFR) inhibitors for chordoma utilizing a toxicology profiling assay platform” (Scientific Reports, 2022).
Like-named read-outs stand apart in the source and are kept apart here.

What was measured:
Assay type in all cases: biochemical
[1] = target: 320 wild-type protein kinases (Homo sapiens, UniProt P06493); details: singlicate
Source text: (§1) Table S4. Profiling of two compounds at two concentrations against 320 wild-type protein kinases; singlicate measurement; Residual activities (% of control).

[2] = target: 320 wild-type protein kinases (Homo sapiens, UniProt P08581); details: MET, singlicate
Chain of 320 wild-type protein kinases (Homo sapiens, UniProt P08581) (P08581 25-1390): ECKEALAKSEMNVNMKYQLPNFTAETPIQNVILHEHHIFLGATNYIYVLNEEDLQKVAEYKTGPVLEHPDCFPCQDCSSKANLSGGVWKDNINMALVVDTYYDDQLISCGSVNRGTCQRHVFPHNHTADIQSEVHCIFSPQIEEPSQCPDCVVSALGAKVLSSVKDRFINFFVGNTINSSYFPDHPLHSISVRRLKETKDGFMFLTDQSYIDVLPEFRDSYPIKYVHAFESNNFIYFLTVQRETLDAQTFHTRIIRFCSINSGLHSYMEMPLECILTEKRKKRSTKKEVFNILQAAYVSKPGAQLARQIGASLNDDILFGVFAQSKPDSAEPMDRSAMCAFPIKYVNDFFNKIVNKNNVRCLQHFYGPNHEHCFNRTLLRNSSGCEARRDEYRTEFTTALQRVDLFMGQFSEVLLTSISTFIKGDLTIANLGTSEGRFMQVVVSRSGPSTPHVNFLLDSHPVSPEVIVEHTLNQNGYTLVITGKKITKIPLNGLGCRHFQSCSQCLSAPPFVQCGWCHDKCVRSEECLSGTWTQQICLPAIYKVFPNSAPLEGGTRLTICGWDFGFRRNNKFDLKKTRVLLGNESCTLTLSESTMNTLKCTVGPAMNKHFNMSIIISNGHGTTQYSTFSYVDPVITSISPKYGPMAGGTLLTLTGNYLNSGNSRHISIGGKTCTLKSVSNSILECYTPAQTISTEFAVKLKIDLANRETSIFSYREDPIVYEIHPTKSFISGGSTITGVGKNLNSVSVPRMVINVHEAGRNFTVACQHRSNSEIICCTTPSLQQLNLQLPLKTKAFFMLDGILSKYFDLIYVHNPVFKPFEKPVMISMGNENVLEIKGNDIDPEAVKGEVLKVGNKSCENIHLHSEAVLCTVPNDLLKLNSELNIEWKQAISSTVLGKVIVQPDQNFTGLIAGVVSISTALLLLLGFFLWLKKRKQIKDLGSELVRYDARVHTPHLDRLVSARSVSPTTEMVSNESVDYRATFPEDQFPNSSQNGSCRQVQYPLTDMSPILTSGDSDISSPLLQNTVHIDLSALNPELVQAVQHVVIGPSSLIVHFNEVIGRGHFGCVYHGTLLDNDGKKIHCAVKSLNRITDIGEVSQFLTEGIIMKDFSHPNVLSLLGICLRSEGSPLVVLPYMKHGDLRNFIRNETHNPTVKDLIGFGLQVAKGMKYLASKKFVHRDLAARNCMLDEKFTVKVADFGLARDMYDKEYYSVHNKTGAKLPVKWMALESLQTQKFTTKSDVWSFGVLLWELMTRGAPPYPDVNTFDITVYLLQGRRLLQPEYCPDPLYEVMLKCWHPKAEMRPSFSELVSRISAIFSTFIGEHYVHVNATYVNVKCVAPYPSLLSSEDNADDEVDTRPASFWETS
Source text: as §1

[3] = target: 320 wild-type protein kinases (Homo sapiens, UniProt P32298); details: singlicate
Chain of 320 wild-type protein kinases (Homo sapiens, UniProt P32298) (P32298 whole entry): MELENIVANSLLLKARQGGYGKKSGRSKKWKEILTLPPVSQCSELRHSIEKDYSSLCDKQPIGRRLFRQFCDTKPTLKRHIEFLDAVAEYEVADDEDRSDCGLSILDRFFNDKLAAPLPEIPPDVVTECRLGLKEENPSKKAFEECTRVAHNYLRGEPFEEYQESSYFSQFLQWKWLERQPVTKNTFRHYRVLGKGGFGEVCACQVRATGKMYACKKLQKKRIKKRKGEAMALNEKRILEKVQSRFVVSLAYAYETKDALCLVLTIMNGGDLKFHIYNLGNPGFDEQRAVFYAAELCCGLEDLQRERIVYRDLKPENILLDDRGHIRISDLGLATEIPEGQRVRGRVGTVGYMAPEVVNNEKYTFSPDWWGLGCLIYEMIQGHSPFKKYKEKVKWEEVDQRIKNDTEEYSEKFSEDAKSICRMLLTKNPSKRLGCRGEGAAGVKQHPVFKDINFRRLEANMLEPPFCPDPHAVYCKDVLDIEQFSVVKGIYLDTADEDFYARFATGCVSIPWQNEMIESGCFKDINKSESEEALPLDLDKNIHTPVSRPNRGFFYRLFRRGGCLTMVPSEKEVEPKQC
Source text: as §1

[4] = target: T1, 320 wild-type protein kinases (Homo sapiens, UniProt P36888); details: singlicate
T1 sequence (P36888 27-993): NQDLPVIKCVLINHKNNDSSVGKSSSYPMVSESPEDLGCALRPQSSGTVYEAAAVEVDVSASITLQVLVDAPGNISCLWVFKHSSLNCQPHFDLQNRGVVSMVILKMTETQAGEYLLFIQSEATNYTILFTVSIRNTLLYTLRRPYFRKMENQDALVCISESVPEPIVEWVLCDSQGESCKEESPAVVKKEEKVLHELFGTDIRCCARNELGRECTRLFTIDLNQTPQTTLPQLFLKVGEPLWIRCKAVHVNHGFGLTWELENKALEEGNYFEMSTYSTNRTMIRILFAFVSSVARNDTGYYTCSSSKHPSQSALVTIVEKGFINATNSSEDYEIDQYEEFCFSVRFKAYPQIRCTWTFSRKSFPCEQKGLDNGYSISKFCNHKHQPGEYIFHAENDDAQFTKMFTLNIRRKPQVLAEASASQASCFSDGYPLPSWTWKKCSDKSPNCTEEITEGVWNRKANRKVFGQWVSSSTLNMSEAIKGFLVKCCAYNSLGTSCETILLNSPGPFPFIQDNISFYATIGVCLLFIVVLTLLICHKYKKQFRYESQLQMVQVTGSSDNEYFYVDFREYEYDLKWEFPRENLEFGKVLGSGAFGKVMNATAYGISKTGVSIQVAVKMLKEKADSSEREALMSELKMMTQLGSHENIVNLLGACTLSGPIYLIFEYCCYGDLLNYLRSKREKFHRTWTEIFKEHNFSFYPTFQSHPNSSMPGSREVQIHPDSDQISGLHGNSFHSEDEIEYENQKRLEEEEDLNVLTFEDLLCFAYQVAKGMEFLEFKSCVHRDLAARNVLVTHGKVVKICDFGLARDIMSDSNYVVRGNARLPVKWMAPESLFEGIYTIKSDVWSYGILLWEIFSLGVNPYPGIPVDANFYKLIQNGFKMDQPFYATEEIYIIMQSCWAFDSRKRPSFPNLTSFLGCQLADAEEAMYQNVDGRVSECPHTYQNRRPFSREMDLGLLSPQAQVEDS
Source text: as §1

[5] = target: 320 wild-type protein kinases (Homo sapiens, UniProt P51957); details: singlicate
Source text: as §1

[6] = target: 320 wild-type protein kinases (Homo sapiens, UniProt P54756); details: singlicate
Chain of 320 wild-type protein kinases (Homo sapiens, UniProt P54756) (P54756 25-1037): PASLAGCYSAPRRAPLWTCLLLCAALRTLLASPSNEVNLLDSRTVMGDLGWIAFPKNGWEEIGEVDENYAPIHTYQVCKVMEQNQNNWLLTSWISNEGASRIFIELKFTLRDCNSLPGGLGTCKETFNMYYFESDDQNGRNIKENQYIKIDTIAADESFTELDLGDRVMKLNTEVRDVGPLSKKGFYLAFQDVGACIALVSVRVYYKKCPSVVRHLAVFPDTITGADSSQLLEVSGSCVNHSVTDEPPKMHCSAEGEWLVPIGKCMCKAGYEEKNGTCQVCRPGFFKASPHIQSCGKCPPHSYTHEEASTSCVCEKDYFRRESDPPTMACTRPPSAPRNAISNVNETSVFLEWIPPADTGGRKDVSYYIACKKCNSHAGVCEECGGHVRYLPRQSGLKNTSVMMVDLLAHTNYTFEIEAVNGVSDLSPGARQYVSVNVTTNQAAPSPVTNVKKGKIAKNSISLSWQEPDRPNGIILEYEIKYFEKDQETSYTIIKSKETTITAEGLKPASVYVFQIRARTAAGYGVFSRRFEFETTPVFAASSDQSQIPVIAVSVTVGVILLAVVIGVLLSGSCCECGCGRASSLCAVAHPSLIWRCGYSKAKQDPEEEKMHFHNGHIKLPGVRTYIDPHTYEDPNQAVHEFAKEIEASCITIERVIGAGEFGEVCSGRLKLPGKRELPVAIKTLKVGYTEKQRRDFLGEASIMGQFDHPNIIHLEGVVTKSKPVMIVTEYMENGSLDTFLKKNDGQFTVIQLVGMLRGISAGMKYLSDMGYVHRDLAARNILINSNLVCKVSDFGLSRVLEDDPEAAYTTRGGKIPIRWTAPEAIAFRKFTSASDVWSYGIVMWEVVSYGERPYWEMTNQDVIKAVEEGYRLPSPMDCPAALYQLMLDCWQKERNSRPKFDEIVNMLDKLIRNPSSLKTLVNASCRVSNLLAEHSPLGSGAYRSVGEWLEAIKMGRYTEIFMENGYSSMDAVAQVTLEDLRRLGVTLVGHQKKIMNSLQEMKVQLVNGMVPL
Source text: as §1

[7] = target: 320 wild-type protein kinases (Homo sapiens, UniProt P57059); details: kinase SIK1, singlicate
Chain of 320 wild-type protein kinases (Homo sapiens, UniProt P57059) (P57059 whole entry): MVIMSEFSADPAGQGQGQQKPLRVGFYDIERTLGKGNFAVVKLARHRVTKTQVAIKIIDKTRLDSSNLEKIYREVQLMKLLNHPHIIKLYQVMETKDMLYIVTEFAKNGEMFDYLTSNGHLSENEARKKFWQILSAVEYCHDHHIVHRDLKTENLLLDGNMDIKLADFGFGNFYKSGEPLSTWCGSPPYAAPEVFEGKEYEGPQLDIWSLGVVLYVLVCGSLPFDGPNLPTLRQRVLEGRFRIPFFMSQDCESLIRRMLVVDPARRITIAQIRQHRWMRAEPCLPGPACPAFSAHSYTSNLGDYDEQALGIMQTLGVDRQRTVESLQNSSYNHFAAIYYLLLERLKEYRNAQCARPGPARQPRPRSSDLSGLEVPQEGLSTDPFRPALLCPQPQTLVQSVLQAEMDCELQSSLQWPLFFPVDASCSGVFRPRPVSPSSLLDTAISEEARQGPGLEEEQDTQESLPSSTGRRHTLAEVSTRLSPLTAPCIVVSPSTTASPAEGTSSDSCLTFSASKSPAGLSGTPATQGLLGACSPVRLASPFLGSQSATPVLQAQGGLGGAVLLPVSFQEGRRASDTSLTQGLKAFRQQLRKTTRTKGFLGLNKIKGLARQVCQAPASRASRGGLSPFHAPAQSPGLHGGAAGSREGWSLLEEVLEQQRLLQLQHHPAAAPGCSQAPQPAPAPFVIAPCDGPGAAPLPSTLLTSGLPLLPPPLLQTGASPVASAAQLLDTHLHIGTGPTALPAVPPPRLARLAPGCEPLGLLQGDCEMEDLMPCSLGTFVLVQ
Source text: as §1

[8] = target: 320 wild-type protein kinases (Homo sapiens, UniProt Q16644); details: singlicate
Source text: as §1

[9] = target: 320 wild-type protein kinases (Homo sapiens, UniProt Q7KZI7); details: singlicate
Chain of 320 wild-type protein kinases (Homo sapiens, UniProt Q7KZI7) (Q7KZI7 whole entry): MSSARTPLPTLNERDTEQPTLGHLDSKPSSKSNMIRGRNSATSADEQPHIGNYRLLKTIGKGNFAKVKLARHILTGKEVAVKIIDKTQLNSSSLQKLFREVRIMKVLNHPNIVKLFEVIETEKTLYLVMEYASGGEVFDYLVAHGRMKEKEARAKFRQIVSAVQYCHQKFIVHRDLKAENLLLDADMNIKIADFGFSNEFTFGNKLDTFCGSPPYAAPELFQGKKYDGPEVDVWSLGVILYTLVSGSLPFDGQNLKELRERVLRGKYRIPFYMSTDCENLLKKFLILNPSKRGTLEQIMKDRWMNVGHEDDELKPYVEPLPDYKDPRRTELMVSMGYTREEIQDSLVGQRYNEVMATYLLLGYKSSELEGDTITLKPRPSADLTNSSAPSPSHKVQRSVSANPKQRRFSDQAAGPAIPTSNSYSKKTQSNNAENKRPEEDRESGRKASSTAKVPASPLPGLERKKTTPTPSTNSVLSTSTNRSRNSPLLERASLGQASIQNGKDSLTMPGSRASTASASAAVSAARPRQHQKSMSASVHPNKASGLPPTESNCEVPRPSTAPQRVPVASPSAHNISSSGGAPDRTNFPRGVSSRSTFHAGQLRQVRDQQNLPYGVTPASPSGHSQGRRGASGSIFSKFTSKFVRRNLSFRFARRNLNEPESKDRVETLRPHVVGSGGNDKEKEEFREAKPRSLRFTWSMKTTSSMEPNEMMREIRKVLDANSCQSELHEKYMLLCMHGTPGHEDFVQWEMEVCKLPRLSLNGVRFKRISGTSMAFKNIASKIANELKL
Source text: as §1

[10] = target: 320 wild-type protein kinases (Homo sapiens, UniProt Q96RG2); details: PASK, singlicate
Source text: as §1

[11] = target: T2, 320 wild-type protein kinases (Homo sapiens, UniProt Q99640); details: singlicate
T2 sequence (Q99640 1-499): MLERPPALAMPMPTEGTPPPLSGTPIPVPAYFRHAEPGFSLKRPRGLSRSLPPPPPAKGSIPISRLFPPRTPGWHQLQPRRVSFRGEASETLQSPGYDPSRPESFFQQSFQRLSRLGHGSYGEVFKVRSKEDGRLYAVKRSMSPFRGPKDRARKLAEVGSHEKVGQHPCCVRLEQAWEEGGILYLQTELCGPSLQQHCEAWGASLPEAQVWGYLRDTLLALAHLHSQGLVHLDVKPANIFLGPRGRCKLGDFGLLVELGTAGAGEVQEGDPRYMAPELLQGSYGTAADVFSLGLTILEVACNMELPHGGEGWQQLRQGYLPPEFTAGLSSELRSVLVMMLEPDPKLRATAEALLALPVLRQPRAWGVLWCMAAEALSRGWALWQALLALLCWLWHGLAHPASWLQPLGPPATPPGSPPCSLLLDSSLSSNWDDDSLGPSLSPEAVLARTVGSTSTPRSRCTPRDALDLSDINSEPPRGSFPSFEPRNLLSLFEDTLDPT
Source text: as §1

[12] = target: 320 wild-type protein kinases (Homo sapiens, UniProt Q9UM73); details: ALK (GST-HIS-tag), singlicate
Source text: as §1

Chain of 320 wild-type protein kinases (Homo sapiens, UniProt P06493) (P06493 whole entry): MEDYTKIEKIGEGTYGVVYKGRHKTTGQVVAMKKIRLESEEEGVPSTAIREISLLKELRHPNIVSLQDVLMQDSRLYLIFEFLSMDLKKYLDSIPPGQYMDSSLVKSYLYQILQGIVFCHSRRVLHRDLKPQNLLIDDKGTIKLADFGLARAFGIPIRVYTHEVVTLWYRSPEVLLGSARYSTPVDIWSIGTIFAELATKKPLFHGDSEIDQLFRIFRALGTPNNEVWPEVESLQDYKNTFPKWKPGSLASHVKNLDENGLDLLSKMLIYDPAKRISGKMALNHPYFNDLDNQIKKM

SMILES | Residual activity ([1]; CDK1/CycA2, 1.0E-06 M) | Residual activity ([1]; CDK1/CycA2, 1.0E-07 M) | Residual activity ([1]; CDK1/CycB1, 1.0E-06 M) | Residual activity ([1]; CDK1/CycB1, 1.0E-07 M) | Residual activity ([1]; CDK1/CycE1, 1.0E-06 M) | Residual activity ([1]; CDK1/CycE1, 1.0E-07 M) | Residual activity ([2]; 1.0E-06 M) | Residual activity ([2]; 1.0E-07 M) | Residual activity ([3]; GRK4, 1.0E-06 M) | Residual activity ([3]; GRK4, 1.0E-07 M) | Residual activity ([4]; FLT3, 1.0E-06 M) | Residual activity ([4]; FLT3, 1.0E-07 M) | Residual activity ([5]; NEK4, 1.0E-06 M) | Residual activity ([5]; NEK4, 1.0E-07 M) | Residual activity ([6]; EPHA5, 1.0E-06 M) | Residual activity ([6]; EPHA5, 1.0E-07 M) | Residual activity, SIK1 ([7]; assay conc. 1.0E-06 M) | Residual activity, SIK1 ([7]; assay conc. 1.0E-07 M) | Residual activity ([8]; MAPKAPK3, 1.0E-06 M) | Residual activity ([9]; MARK2, 1.0E-06 M) | also measured
C#Cc1cc(Nc2ncnc3cc(I)ccc23)ccc1Cl [Compound 41] | 77 % of control | 91 % of control | 79 % of control | 84 % of control | 101 % of control | 116 % of control | 89 % of control | 93 % of control | 113 % of control | 128 % of control | 94 % of control | 95 % of control | 94 % of control | 100 % of control | 126 % of control | 128 % of control | 77 % of control | 93 % of control | 86 % of control | 114 % of control | Residual activity ([8]; MAPKAPK3, 1.0E-07 M): 99 % of control; Residual activity ([9]; MARK2, 1.0E-07 M): 104 % of control; Residual activity ([10]; 1.0E-06 M): 101 % of control; Residual activity ([10]; 1.0E-07 M): 102 % of control; Residual activity ([11]; PKMYT1, 1.0E-06 M): 79 % of control; Residual activity ([11]; PKMYT1, 1.0E-07 M): 88 % of control; Residual activity ([12]; 1.0E-06 M): 93 % of control; Residual activity ([12]; 1.0E-07 M): 102 % of control
C#Cc1cc(Nc2ncnc3cc(OC)c(OC)cc23)ccc1Cl [Compound 45] | 83 % of control | 83 % of control | 78 % of control | 89 % of control | 91 % of control | 97 % of control | 70 % of control | 99 % of control | 126 % of control | 121 % of control | 56 % of control | 88 % of control | 84 % of control | 106 % of control | 92 % of control | 115 % of control | 87 % of control | 101 % of control | 87 % of control | 90 % of control | Residual activity ([9]; MARK2, 1.0E-07 M): 103 % of control; Residual activity ([10]; 1.0E-06 M): 93 % of control; Residual activity ([10]; 1.0E-07 M): 98 % of control; Residual activity ([11]; PKMYT1, 1.0E-06 M): 95 % of control; Residual activity ([11]; PKMYT1, 1.0E-07 M): 114 % of control; Residual activity ([12]; 1.0E-06 M): 63 % of control; Residual activity ([12]; 1.0E-07 M): 102 % of control
